Test results published in the NIST ThermoML archive (doi:10.1016/j.tca.2006.02.036).
± gives the expanded uncertainty stated by the source.

Experiments:
[1] = Crystal 2; Adiabatic calorimetry
[2] = Molar enthalpy of transition or fusion; settings: Crystal 2; DSC

Triple point temperature [1]: 208 ± 0.18 K
Molar enthalpy of transition or fusion [2]: 0.739 ± 0.043 kcal/mol
Structure (SMILES): C1C2CC3CC1CC(C2)C3 [adamantane]
